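GI50: concentration for 50% inhibition of growth. TGI: concentration producing complete growth inhibition.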
Assays:
Test in all cases: growth of human tumour cells (NCI), 384-well format
NCI-H322M lung = tested on: NCI-H322M lung
HCT-116 colon = tested on: HCT-116 colon
CAKI-1 renal = tested on: CAKI-1 renal
A549 NSCLC = tested on: A549 NSCLC
KM12 colon = tested on: KM12 colon
MOLT-4 leukemia = tested on: MOLT-4 leukemia
T-47D breast = tested on: T-47D breast
HOP-62 NSCLC = tested on: HOP-62 NSCLC
HT29 colon = tested on: HT29 colon
U251 glioblastoma = tested on: U251 glioblastoma
RXF 393 renal = tested on: RXF 393 renal
SF-268 CNS = tested on: SF-268 CNS
HOP-92 NSCLC = tested on: HOP-92 NSCLC
OVCAR-4 ovarian = tested on: OVCAR-4 ovarian
SNB-75 CNS = tested on: SNB-75 CNS
MCF7 breast = tested on: MCF7 breast
EKVX NSCLC = tested on: EKVX NSCLC
SK-MEL-28 melanoma = tested on: SK-MEL-28 melanoma
NCI-H23 lung = tested on: NCI-H23 lung
LOX IMVI melanoma = tested on: LOX IMVI melanoma
TK-10 renal = tested on: TK-10 renal
M14 melanoma = tested on: M14 melanoma
BT-549 breast = tested on: BT-549 breast
SNB-19 CNS = tested on: SNB-19 CNS
IGROV1 ovarian = tested on: IGROV1 ovarian
HS 578T breast = tested on: HS 578T breast
A498 renal = tested on: A498 renal
MDA-MB-231 breast = tested on: MDA-MB-231 breast
SW-620 colon = tested on: SW-620 colon
MDA-MB-435 melanoma = tested on: MDA-MB-435 melanoma
NCI-H226 lung = tested on: NCI-H226 lung
NCI-H460 NSCLC = tested on: NCI-H460 NSCLC
HCT-15 colon = tested on: HCT-15 colon
SK-MEL-5 melanoma = tested on: SK-MEL-5 melanoma
SK-OV-3 ovarian = tested on: SK-OV-3 ovarian
PC-3 prostate = tested on: PC-3 prostate
MDA-MB-468 breast = tested on: MDA-MB-468 breast
SN12C renal = tested on: SN12C renal
UO-31 renal = tested on: UO-31 renal
SF-295 CNS = tested on: SF-295 CNS
COLO 205 colon = tested on: COLO 205 colon
NCI/ADR-RES ovarian = tested on: NCI/ADR-RES ovarian
OVCAR-3 ovarian = tested on: OVCAR-3 ovarian
HCC-2998 colon = tested on: HCC-2998 colon
DU-145 prostate = tested on: DU-145 prostate
UACC-257 melanoma = tested on: UACC-257 melanoma
RPMI-8226 leukemia = tested on: RPMI-8226 leukemia
HL-60(TB) leukemia = tested on: HL-60(TB) leukemia
OVCAR-8 ovarian = tested on: OVCAR-8 ovarian
UACC-62 melanoma = tested on: UACC-62 melanoma
NCI-H522 lung = tested on: NCI-H522 lung
ACHN renal = tested on: ACHN renal
SR leukemia = tested on: SR leukemia
786-0 renal = tested on: 786-0 renal
CCRF-CEM leukemia = tested on: CCRF-CEM leukemia
MALME-3M melanoma = tested on: MALME-3M melanoma
OVCAR-5 ovarian = tested on: OVCAR-5 ovarian
SF-539 CNS = tested on: SF-539 CNS

## c1cc(CN2CCCNCCNCCCNCC2)ccc1CN1CCCNCCNCCCNCC1
NCI-H322M lung
  GI50: > 100 µM
  TGI: > 100 µM
HCT-116 colon
  GI50: > 100 µM
  TGI: > 100 µM
CAKI-1 renal
  GI50: > 100 µM
  TGI: > 100 µM
A549 NSCLC
  GI50: > 100 µM
  TGI: > 100 µM
KM12 colon
  GI50: > 100 µM
  TGI: > 100 µM
MOLT-4 leukemia
  GI50: > 100 µM
  TGI: > 100 µM
T-47D breast
  GI50: > 100 µM
  TGI: > 100 µM
HOP-62 NSCLC
  GI50: > 100 µM
  TGI: > 100 µM
HT29 colon
  GI50: > 100 µM
  TGI: > 100 µM
U251 glioblastoma
  GI50: > 100 µM
  TGI: > 100 µM
RXF 393 renal
  GI50: > 100 µM
  TGI: > 100 µM
SF-268 CNS
  GI50: > 100 µM
  TGI: > 100 µM
HOP-92 NSCLC
  GI50: > 100 µM
  TGI: > 100 µM
OVCAR-4 ovarian
  GI50: > 100 µM
  TGI: > 100 µM
SNB-75 CNS
  GI50: > 100 µM
  TGI: > 100 µM
MCF7 breast
  GI50: > 100 µM
  TGI: > 100 µM
EKVX NSCLC
  GI50: > 100 µM
  TGI: > 100 µM
SK-MEL-28 melanoma
  GI50: > 100 µM
  TGI: > 100 µM
NCI-H23 lung
  GI50: > 100 µM
  TGI: > 100 µM
LOX IMVI melanoma
  GI50: > 100 µM
  TGI: > 100 µM
TK-10 renal
  GI50: > 100 µM
  TGI: > 100 µM
M14 melanoma
  GI50: > 100 µM
  TGI: > 100 µM
BT-549 breast
  GI50: > 100 µM
  TGI: > 100 µM
SNB-19 CNS
  GI50: > 100 µM
  TGI: > 100 µM
IGROV1 ovarian
  GI50: > 100 µM
  TGI: > 100 µM
HS 578T breast
  GI50: > 100 µM
  TGI: > 100 µM
A498 renal
  GI50: > 100 µM
  TGI: > 100 µM
MDA-MB-231 breast
  GI50: > 100 µM
  TGI: > 100 µM
SW-620 colon
  GI50: > 100 µM
  TGI: > 100 µM
MDA-MB-435 melanoma
  GI50: > 100 µM
  TGI: > 100 µM
NCI-H226 lung
  GI50: > 100 µM
  TGI: > 100 µM
NCI-H460 NSCLC
  GI50: > 100 µM
  TGI: > 100 µM
HCT-15 colon
  GI50: > 100 µM
  TGI: > 100 µM
SK-MEL-5 melanoma
  GI50: > 100 µM
  TGI: > 100 µM
SK-OV-3 ovarian
  GI50: > 100 µM
  TGI: > 100 µM
PC-3 prostate
  GI50: > 100 µM
  TGI: > 100 µM
MDA-MB-468 breast
  GI50: > 100 µM
  TGI: > 100 µM
SN12C renal
  GI50: > 100 µM
  TGI: > 100 µM
UO-31 renal
  GI50: > 100 µM
  TGI: > 100 µM
SF-295 CNS
  GI50: > 100 µM
  TGI: > 100 µM
COLO 205 colon
  GI50: > 100 µM
  TGI: > 100 µM
NCI/ADR-RES ovarian
  GI50: > 100 µM
  TGI: > 100 µM
OVCAR-3 ovarian
  GI50: > 100 µM
  TGI: > 100 µM
HCC-2998 colon
  GI50: > 100 µM
  TGI: > 100 µM
DU-145 prostate
  GI50: > 100 µM
  TGI: > 100 µM
UACC-257 melanoma
  GI50: > 100 µM
  TGI: > 100 µM
RPMI-8226 leukemia
  GI50: > 100 µM
  TGI: > 100 µM
HL-60(TB) leukemia
  GI50: > 100 µM
  TGI: > 100 µM
OVCAR-8 ovarian
  GI50: > 100 µM
  TGI: > 100 µM
UACC-62 melanoma
  GI50: > 100 µM
  TGI: > 100 µM
NCI-H522 lung
  GI50: > 100 µM
  TGI: > 100 µM
ACHN renal
  GI50: > 100 µM
  TGI: > 100 µM
SR leukemia
  GI50: > 100 µM
  TGI: > 100 µM
786-0 renal
  GI50: > 100 µM
  TGI: > 100 µM
CCRF-CEM leukemia
  GI50: > 100 µM
  TGI: > 100 µM
MALME-3M melanoma
  GI50: > 100 µM
  TGI: > 100 µM
OVCAR-5 ovarian
  GI50: > 100 µM
  TGI: > 100 µM
SF-539 CNS
  GI50: > 100 µM
  TGI: > 100 µM

— PubChem BioAssay (NCI)
